The values that follow come from patent US20050032124A1, “Identification of genotype-selective agents for treating Huntington's disease” (priority 2003, published 2005).

In brackets after ≈: the same amount, converted by molar mass. Where two headings read alike, the source gives them in different places.

The test system of assay [1] is BJ-TERT/LT/ST cells. The experiment in a line: Calcein AM viability assay, dilution-series retest. Format: cell-based, human. The note with it: Homo sapiens, 48 h, read-out: IC50, BJ-TERT/LT/ST. An excerpt:
(§1) Described here is work carried out to identify compounds with increased potency or activity in the presence of hTERT, LT, ST, E6, E7 or RAS^V12. Engineered cell lines with these genetic elements were used to screen […] compounds, including 20,000 compounds from a combinatorial library, 1,990 compounds from the National Cancer Institute diversity collection, and 1,540 biologically active known compounds that were selected and purchased by Applicant and formatted into a screenable collection. The primary screen tested (in quadruplicate) the effect of treating tumorigenic BJ-TERT/LT/ST/RAS^V12 engineered tumorigenic cells with each compound for 48 hours at a concentration of 4 μg/mL, corresponding to 10 μM for a compound with a molecular weight of 400, which is the approximate median molecular weight of the libraries. Cell viability was measured using the dye calcein acetoxymethyl ester (calcein AM) (Wang et al., 1993, Hum. Immunol. 3 7, 264-270), which is a non-fluorescent compound that freely diffuses into cells. In live cells, calcein AM is cleaved by intracellular esterases, forming the anionic fluorescent derivative calcein, which cannot diffuse out of live cells. […] The IC50 value (concentration required to inhibit 50% of the calcein AM signal) was calculated for each compound in each cell line (Table 1). […] Following is a more detailed analysis of these nine compounds.
(§2) Calcein acetoxylmethyl ester (AM) is a cell membrane-permeable, non-fluorescent compound that is cleaved by intracellular esterases to form the anionic, cell-impermeable, fluorescent compound calcein. Viable cells are stained by calcein because of the presence of intracellular esterases and because the intact plasma membrane prevents fluorescent calcein from leaking out of cells (Wang et al., 1993, supra). Cells were seeded in 384-well plates using a Zymark Sciclone ALH, treated with each compound in triplicate at 4 μg/mL in the primary screen for two days, washed with phosphate-buffered saline on a Packard Minitrak with a 384-well washer and incubated for four hours with 0.7 μg/mL calcein (Molecular Probes). Total fluorescence intensity in each well was recorded on a Packard Fusion platereader, and converted to a percent inhibition of signal by subtracting the instrument background and dividing by the average signal obtained when cells were not treated with any compound.
(§3) Replica daughter plates were prepared with a Zymark Sciclone ALH and integrated Twister II by diluting stock plates 50 fold in medium lacking serum and pen/strep to obtain a compound concentration in daughter plates of 80 μg/ml with 2% DMSO. Assay plates were prepared by seeding cells in black, clear bottom 384-well plates in columns 1-23 (6000 cells/well in 57 μl) using a syringe bulk dispenser. Columns 3-22 were treated with compounds from a daughter library plate by transferring 3 μl from the daughter library plate using 384-position fixed cannula array. The final compound concentrations in assay plates were thus 4 μg/ml. The assay plates were incubated for 48 hours at 37° C. in humidified incubator containing 5% CO2. Plate processing for the calcein AM viability assay was performed using an integrated Minitrak/Sidetrak robotic system from Packard Bioscience (Perkin Elmer). Assay plates were washed with phosphate buffered saline, and 20 μl of calcein AM (0.7 μg/ml) per well was added. Plates were incubated at room temperature for 4 hours. Fluorescence intensity was determined using a Fusion platereader with filters centered on an excitation of 485 nm and an emission of 535 nm.
(§4) Compounds to be retested were purchased from manufacturers. Stocks were prepared in DMSO at a concentration of 1 mg/ml in 384-well polypropylene plates with a 16-point, two-fold dilution dose curve of each compound in a column, in duplicates. Column 1-2 and 23-24 were left empty for controls. […]

Assay [2] relates to BJ primary cells. The experiment in a line: Calcein AM viability assay, dilution-series retest. Format: cell-based, human. The note with it: Homo sapiens, 48 h, read-out: concentration required to achieve 50% inhibition of calcein AM staining (IC50), BJ.
Text: as §1, §2, §3, §4

For assay [3], the system named is BJ-TERT/LT/RAS^V12/ST cells. The experiment in a line: Calcein AM viability assay, dilution-series retest. Type of assay: cell-based, human. The note with it: Homo sapiens, 48 h, read-out: IC50, BJ-TERT/LT/Ras^V12/ST.
Text: as §1, §2, §3, §4

For assay [4], the system named is BJ-TERT/LT/RAS^V12 cells. The assay can be described thus: Calcein AM viability assay, dilution-series retest. Type of assay: cell-based. The note with it: Homo sapiens, 48 h, read-out: IC50, BJ-TERT/LT/Ras^V12.
Text: as §1, §2, §3, §4

Assay [5] deals with BJ-TERT cells. The experiment in a line: Calcein AM viability assay, dilution-series retest. Conditions: Homo sapiens, 48 h, read-out: IC50, BJ-TERT. Format: cell-based.
Text: as §1, §2, §3, §4

The test system of assay [6] is reactive oxygen species. The experiment in a line: ROS analysis, flow cytometry using H2DCF-DA. Type of assay: cell-based, human. The note with it: engineered cells. The text has this: 2′7′ dichlorodihydrofluorescein diacetate (H2DCF-DA) is a non-fluorescent cell permeable compound. The endogenous esterase enzyme inside the cell cleaves the diacetate part, and it can no longer pass out of the cell. Thus it accumulates in the cell. Then H2DCF reacts with ROS to form fluorescent dichlorofluorescene (DCF) which can be measured by flow cytometry in FL1 channel. • 1. Seed cells at 3×10^5 cells per dish in 60 mm dishes and allow to grow overnight. • 2. Treat with the test compound for different period of time (1-10 hr). • 3. Maintain one dish for untreated cells, compound treated cell and positive control dish (hydrogen peroxide treated) for each time point. • 4. Incubate the cells with 10 μM of H2DCF-DA for 10 minutes at 37° C. • 5. For positive control cells, after 5 minutes of H2DCF-DA loading, add 500 μM of hydrogen peroxide and incubate for 5 minutes further. • 6. Harvest the cell by trypsinization. • 7. Wash with cold PBS-twice. • 8. Resuspend the pellet in 100 μl of PBS and transfer into 5 ml FACS tube. • 9. Add 5 μl of propidium iodide (50 μg/ml) and incubate for 10 minutes on ice in dark. • 10. Add 400 μl of PBS and analyze by flow cytometry (Becton-Dickinson). • 11. Acquire the data and analyze using CellQuest software program. • 12. Take only propidium iodiode negative cells (viable cells) for the analysis for DCF staining using the FLI channel, PI in FL3 channel, plot a quadrant chart.

Setting [7] is: BJ-TERT/LT/ST cells, 16-point two-fold dilution, two days.
The mark [8] stands for this setting: BJ cells, 16-point two-fold dilution, two days.
Where [9] appears, read: BJ-TERT/LT/Ras^V12/ST cells, 16-point two-fold dilution, two days.
[10] abbreviates: BJ-TERT/LT/Ras^V12 cells, 16-point two-fold dilution, two days.
Where [11] appears, read: BJ-TERT cells, 16-point two-fold dilution, two days.

On to `COc1ccc(C[C@H]2C(=O)N[C@@H](C)C(=O)N(C)[C@@H]3C(=O)N(C)[C@@H](Cc4ccc(O)c(c4)Oc4ccc(cc4)[C@@H]3O)C(=O)N[C@H](C)C(=O)N[C@@H](C)C(=O)N2C)cc1` [Bouvardin], for which the IC50 in assay [1] was 0.0195 µg/mL (≈ 0.0252 µM); in assay [2] (BJ), 0.312 µg/mL (≈ 0.404 µM); in assay [3], 0.0195 µg/mL (≈ 0.0252 µM); in assay [4], 0.078 µg/mL (≈ 0.101 µM); in assay [5], 0.078 µg/mL (≈ 0.101 µM).
Consider `CC[C@@]1(O)C(=O)OCc2c1cc1n(c2=O)Cc2cc3ccccc3nc2-1` [Camptothecin], for which the IC50 was 1.25 µg/mL (≈ 3.59 µM) in assay [1] (setting [7]); above 5 µg/mL in assay [2] (setting [8]); 0.0195 µg/mL (≈ 0.056 µM) in assay [3] (setting [9]); 1.25 µg/mL (≈ 3.59 µM) in assay [4] (setting [10]); above 5 µg/mL in assay [5] (setting [11]).
As to `COc1cccc2c1C(=O)c1c(O)c3c(c(O)c1C2=O)C[C@@](O)(C(C)=O)C[C@@H]3O[C@H]1C[C@H](N)[C@H](O)[C@H](C)O1` [Daunorubicin], the “formation of reactive oxygen species (ROS)” value (from here on “formation”) in assay [6] is on record as “did not observe the formation of ROS”. Further, the IC50 is 0.312 µg/mL (≈ 0.591 µM) in assay [1]; 5 µg/mL (≈ 9.48 µM) in assay [2] (BJ); 0.625 µg/mL (≈ 1.18 µM) in assay [3]; 1.25 µg/mL (≈ 2.37 µM) in assay [4]; 1.25 µg/mL (≈ 2.37 µM) in assay [5].
Turning to `COc1cccc2c1C(=O)c1c(O)c3c(c(O)c1C2=O)C[C@@](O)(C(=O)CO)C[C@@H]3O[C@H]1C[C@H](N)[C@H](O)[C@H](C)O1` [Doxorubicin], the “formation” value in assay [6] is reported as “did not observe the formation of ROS”. In addition, the IC50 in assay [1] (setting [7]) was 0.312 µg/mL (≈ 0.574 µM); in assay [2] (setting [8]), above 5 µg/mL; in assay [3] (setting [9]) it was 1.25 µg/mL (≈ 2.3 µM); in assay [4] (setting [10]) it was 1.25 µg/mL (≈ 2.3 µM); in assay [5] (setting [11]), 1.25 µg/mL (≈ 2.3 µM).
Consider `CS[C@H]1SC[C@H]2C(=O)N(C)[C@@H](C(C)C)C(=O)OC[C@@H](NC(=O)c3cnc4ccccc4n3)C(=O)N[C@@H](C)C(=O)N(C)[C@@H]1C(=O)N(C)[C@@H](C(C)C)C(=O)OC[C@@H](NC(=O)c1cnc3ccccc3n1)C(=O)N[C@@H](C)C(=O)N2C` [Echinomycin], for which the IC50 is 0.0048 µg/mL (≈ 0.00436 µM) in assay [1]; above 5 µg/mL in assay [2] (BJ); 0.0012 µg/mL (≈ 0.00109 µM) in assay [3]; 0.0048 µg/mL (≈ 0.00436 µM) in assay [4]; 0.312 µg/mL (≈ 0.283 µM) in assay [5].
For the compound `CCOc1ccccc1-n1c(C(C)N2CCN(C(=O)COc3ccc(Cl)cc3)CC2)nc2ccccc2c1=O` (stereo not shown) [Erastin], the IC50 in assay [1] (setting [7]) is above 5 µg/mL; in assay [2] (setting [8]), above 5 µg/mL; in assay [3] (setting [9]) it was 1.25 µg/mL (≈ 2.28 µM); in assay [4] (setting [10]) it was above 5 µg/mL; in assay [5] (setting [11]), above 5 µg/mL.
In the case of `O=C1c2c(O)ccc(O)c2C(=O)c2c(NCCNCCO)ccc(NCCNCCO)c21` [Mitoxantrone], the “formation” value in assay [6] is listed as “did not observe the formation of ROS”. For the same compound, the IC50 in assay [1] (setting [7]) is 0.312 µg/mL (≈ 0.702 µM); in assay [2] (setting [8]), 5 µg/mL (≈ 11.2 µM); in assay [3] (setting [9]), 0.312 µg/mL (≈ 0.702 µM); in assay [4] (setting [10]), 1.25 µg/mL (≈ 2.81 µM); in assay [5] (setting [11]), 1.25 µg/mL (≈ 2.81 µM).
With `NC(=O)c1cn([C@@H]2O[C@H](CO)[C@@H](O)[C@H]2O)c2ncnc(N)c12` [Sangivamycin], the IC50 is 0.195 µg/mL (≈ 0.63 µM) in assay [1]; 0.312 µg/mL (≈ 1.01 µM) in assay [2] (BJ); 0.078 µg/mL (≈ 0.252 µM) in assay [3]; 0.078 µg/mL (≈ 0.252 µM) in assay [4]; 0.039 µg/mL (≈ 0.126 µM) in assay [5].
